Measurements published in a melting point compilation (Tetko et al.; mined from patent text by program, amines drawn as free bases though some values may be those of a salt).

SMILES	melting point [°C]
CC12CC(O)C3(F)C(CCC4=CC(=O)C=CC43C)C1CC(O)C2=O (configuration not stated)	227 to 228
CS(=O)(=O)Nc1ccc(NC(=O)CCCc2ccc(N=C(N)c3cccs3)cc2)cc1	187 to 188
N#CCc1cccc(OCc2csc(-c3ccccc3)n2)c1	108 to 110
CNC(=O)C1CC(=O)N(Cc2ccccc2)C1 (configuration not stated)	82.5 to 83
NC(=O)C1CCC(OCCCN2CCN(c3cccc4sccc34)CC2)CC1 (configuration not stated)	108
CCSc1cc(C)nc(SCC)c1NC(=O)CCCCCCCCSc1nc2ccccc2s1	88 to 92
O=C1C(=O)N(c2cccc3ccccc23)C(=O)N1c1ccccc1	105 to 108
CC(C)NCC(O)COc1ccccc1-c1ccc(=S)[nH]n1 (configuration not stated)	166 to 168
CC(=O)NC[C@H]1CN(c2ccc(N3CC(C)(O[Si](C)(C)C(C)(C)C)C3)c(F)c2)C(=O)O1	137 to 138
COc1ccc(C2=C(Cl)C(=O)C2)cc1	96 to 98
CCNC(=O)N1C2=NC(C)(C)N(C)C(=O)N2c2ccccc21	127 to 131
OC[C@H]1CC[C@H](c2ccc(Cl)cc2)CC1	60 to 63
CCc1cc2c(s1)-n1nnnc1CN=C2c1ccccc1Cl	135 to 136
CC(=O)Nc1ccc(S(=O)(=O)c2cccc(Cl)c2)cc1	149 to 150
Cc1ccc2oc(-c3ccccc3)nc2n1	148 to 149
Cc1cccc2c(=O)c(CCCl)n[nH]c12	222 to 225
CCOc1ccc(C23CNCC2C3)cc1 (configuration not stated)	48 to 49
[N-]=[N+]=Nc1ccc(-c2ccc(-c3nc(N)nc(N)n3)cc2)cc1	230
O=c1n(CCCF)nnn1-c1cc(Oc2ncccn2)c(Cl)cc1F	111 to 113
CCOC(=O)C1=C(COCc2nnn(CCNC(=NC#N)SC)n2)NC(C)=C(C(=O)OC)C1c1cccc(Cl)c1Cl (configuration not stated)	78 to 80
CCCCCCCCCCCCCCCCCCOc1cc(OCCCOc2ccccc2)cc(N(CC(=O)O)CC(=O)O)c1	99 to 102

SMILES	melting point [°C]
CC1(C)SC(=O)NC1C(=O)NCCO[N+](=O)[O-] (configuration not stated)	98 to 100
CCCCCCC(C)(C)c1ccc(C2(O)CCCNC2)c(O)c1 (configuration not stated)	147
Cc1cccc([N+](=O)[O-])c1CNc1cccn2c(Cl)c(C)nc12	142 to 144
OCc1cn(Cc2ccc(OCc3ccccc3)cc2)cc1-c1ccccc1	122 to 123
N#Cc1cc(O)c(O)c([N+](=O)[O-])c1	175 to 178
C=C1CC2C(CCC3(C)C2C=CC3(C)O)C2(C)CCC(=O)C=C12 (configuration not stated)	162
O=C(O)C1CCC=C(c2ccccc2)C1 (configuration not stated)	77 to 80
O=C(NCCO)c1csc(C(=O)NCCO)n1	155 to 158
CN1CCN(C(=O)Oc2ccc(C[C@H](NC(=O)Nc3ccccc3S(=O)(=O)c3ccccc3)C(=O)O)cc2)CC1	160
CSc1c(C(=O)NN=Cc2nccs2)[nH]c2ccccc12	216 to 222
CC1(C)CCC(=O)Nc2ccc(Nc3ncc(Cl)c(N[C@@H]4CCCC[C@H]4NS(C)(=O)=O)n3)cc21	170 to 185
O=C(NC1CCCCNC1=O)c1cccnc1 (configuration not stated)	177 to 178
Cc1cc(O)c(Oc2ccccc2C#N)cc1-n1cccc1	158 to 160
NC(=O)NCCN1CCC(O[N+](=O)[O-])CC1	114 to 116
COc1ccc2onc(Nc3ccncc3)c2c1	248 to 251
CON(C)C(=O)c1cc(Br)ccc1N	80 to 81
O=C1c2ccccc2C(=O)N1CC=CCn1ccnc1	106 to 108
CCc1cn2c(N)c(Cl)cc(C(=O)NCC3CCN(CC4(O)CCOCC4)CC3)c2n1	229
O=C(CC(=O)C1CC1)c1cccnn1	85 to 87
O=C(OCc1ccccc1)c1ncc(OCc2ccccc2)c(OCc2ccccc2)c1Br	120
COC(=O)C[C@H]1N=C(c2ccccc2Cl)c2cc(Cl)ccc2NC1=O	168 to 170

SMILES	melting point [°C]
COc1cc(CCNC(=S)Nc2nccs2)ccc1OC(C)C	140 to 141
S=C1CN=C(c2ccccc2Cl)c2cc(CCc3ccc(-c4ccccc4)cc3)sc2N1	187 to 189
CN1CCC(Nc2ccc([N+](=O)[O-])cc2)CC1	153 to 155
NC(=O)c1cc(C(=O)CN(Cc2ccccc2)Cc2ccccc2)ccc1OCC(O)CO (configuration not stated)	169 to 173
CCCCCC(CCn1ccnc1)Sc1ccc(C(C)(C)C)cc1 (configuration not stated)	192 to 193
CCOC(=O)c1cnc2ccc3nc(S(C)(=O)=O)sc3c2c1Cl	170 to 179
CCCNC(=O)C(C#N)=C(SC)SC	65 to 66
CC1(C2CCCC2)Cc2cc(NCC(=O)O)c(Cl)c(Cl)c2C1=O (configuration not stated)	199 to 200
CCCCCCCCCCc1nnnn1CC(=O)Nc1c(C(C)C)cccc1C(C)C	71 to 73
OCCCc1conc1-c1ccc(Cl)c(Cl)c1	62 to 63
NC(=S)NC1CCCc2sccc21 (configuration not stated)	129 to 131
CCOC(=O)c1cnc(NN)nc1C(F)(F)F	89 to 90
Cc1cc2ncc(Nc3cccc(Cl)c3)nc2cc1C	175
CCCc1c(OCC(O)CSc2ccc(C(=O)CCC(=O)O)cc2)ccc(C(C)=O)c1O (configuration not stated)	115 to 116
COc1ccc(CC(C)=O)cc1SC	74 to 75
Cc1ccc([N+](=O)[O-])cc1-c1ccccc1	69 to 71
CC1=Nc2c3c(C)cnc-3ccn2C1	211
O=Cc1ccc(-c2ccc(Br)cc2)nc1	108 to 109
OC(CCl)(Cc1ccccc1)c1ccc(-c2ccccc2)cc1 (configuration not stated)	96
COc1cc(C=O)ccc1OCCCCCCOC(C)=O	74 to 75
CCCCCCCOc1ccc(-c2ccc(N=Nc3ccc([N+](=O)[O-])cc3)cc2)cc1	147 to 148

Continued, values first:

melting point [°C]	SMILES
144 to 146	COC(=O)C(NS(=O)(=O)c1ccc(-c2ccc([N+](=O)[O-])cc2)cc1)C(C)C (configuration not stated)
178 to 200	CNc1cc(-c2ccc(Cl)cc2)nc(C(=O)OC)c1N
143 to 144	Cc1cc(NC(=O)c2cccc(CCc3cccnc3)c2)ccc1C(C)C
148 to 150	CC(=O)Oc1cc(Cl)ccc1C1(OC(C)=O)C(=O)c2ccccc2C1=O
163 to 166	CN1C(=O)C=C(c2ccc([N+](=O)[O-])cc2)C1=O
178 to 180	CN(Cc1cc(C(F)(F)F)cc(C(F)(F)F)c1)C(=O)c1c(-c2ccc(F)cc2)c2c(c(=O)n1C)CNCC2
127 to 128	CCOC(=O)c1ccc(-c2nnc(-c3ccccc3[N+](=O)[O-])o2)cc1
250 to 252	O=C1c2[nH]c3cc(O)ccc3c2CC1CC1CCN(Cc2ccccc2)CC1 (configuration not stated)
298 to 302	Oc1nc2ccc(F)cc2n2c(C(F)(F)F)nnc12
127	CN1CCN(C2=Cc3ccccc3Oc3ccccc3C2)CC1
248 to 250	CCn1ncc2c3noc(-c4ccc(Cl)cc4)c3cnc21
75 to 76	Cc1ccc2c(c1)CN(C)C(=O)CC2
215 to 216	CCCOc1ccc(CCC(=O)O)cc1-c1nc2c(C)cccc2c(=O)[nH]1
285 to 287	CN1CCc2[nH]c(=O)n3nc(-c4ccccc4F)nc3c2C1
241	CC(=O)N1CCN(c2cc(-c3cnc4c(c3)N(Cc3cc(Cl)ccc3C(F)(F)F)CCN4)ccn2)CC1
106 to 108	COc1cccc2c3c(n(C)c12)SCCC3=O
190	O=C(NC[C@@H](C(=O)NO)N1CCCCC1)c1ccc(OCc2ccncc2)cc1
266 to 268	CN1C(=O)C2(COc3cc4c(cc32)OCCO4)c2c(NC(=O)C3CC3)cccc21 (configuration not stated)
158 to 160	COC(=O)C1CCc2sc3ccccc3c2C1=O (configuration not stated)
240	CN1CC(=O)N2[C@H](c3ccc4c(c3)CCN4)c3[nH]c4ccccc4c3C[C@@H]2C1=O

melting point [°C]	SMILES
219 to 221	Cc1nc(N2CCCC2C)c2nc(-c3ccccc3)cc-2[nH]1 (configuration not stated)
252 to 254	Cc1cc(-c2nc3cccnn3c2-c2ccnc(NC(=O)c3cncc(Cl)c3)c2)ccc1F
153 to 155	COc1ccc(-c2nc3cccnc3n2CC(=O)N2CCCCC2)cc1
255 to 258	Cc1ccccc1-n1c(-c2cc(-c3ccc(S(C)(=O)=O)cc3)c(N3CCOCC3)s2)nc2ccccc2c1=O
143 to 145	FC(F)(F)COC(c1ccc(Cl)c2nc3n(c12)CCCN3c1ccc(Cl)cc1Cl)C1CC1 (configuration not stated)
65 to 68	CSc1ncnn1C[C@]1(c2ccc(F)cc2F)O[C@@H]1c1ccccc1F (relative stereo)
136 to 137	CC(C)c1cc(OCC(=O)O)cc2c1C(=O)N(COC(=O)c1c(Cl)cccc1Cl)S2(=O)=O
190	CC(C)(C)OC(=O)[C@H]1CC[C@@H](c2ccccc2)N1C(=O)CNC(=O)Nc1ccc(O)c(C(=O)O)c1 (racemic)
226 to 228	Cc1nc(N2CCNC2=O)sc1C(=O)NCc1ccccc1
> 280	CC1COc2c(F)c(F)cc3c(=O)c(C(=O)O)cn1c23 (configuration not stated)
214 to 216	CSc1ccccc1N1CCN(Cc2nc3ccccc3[nH]2)CC1
135 to 137	O=C(NCCCN1CCCCC1)c1ccc(-c2ccc3nnn(Cc4ccc5ncccc5c4)c3n2)cc1F
222 to 224	CCCNC(=S)N1CCc2cc(S(=O)(=O)N3CC(c4ccccc4)NC3=O)ccc21 (configuration not stated)
174 to 176	NC(=O)c1cnn2c1N(C(=O)CCl)CC=C2c1cccc(C(F)(F)F)c1
198 to 200	O=C(/C=C/C1CCCCC1)N1CCN(C(=O)c2cc(C(F)(F)F)cc(C(F)(F)F)c2)[C@H](Cc2c[nH]c3ccccc23)C1
52 to 54	CCCNC(=O)C1(CCCCN2CCC(N3Cc4ccccc4C3=O)CC2)c2ccccc2-c2cccnc21 (configuration not stated)
75 to 76	Cc1cc(F)ccc1NCC(=O)NCc1ccccc1
150 to 152	Nc1cc(C(F)(F)C(F)(F)OC(F)(F)C(F)(F)OC(F)(F)C(F)(F)c2ccc(O)c(N)c2)ccc1O
153 to 156	C[C@@H]1c2cc(F)ccc2-c2ccc(F)cc2N1S(=O)(=O)c1ccc(O)cc1O
